Publication PMC9186362, “Design and biological evaluation of substituted 5,7-dihydro-6H-indolo[2,3-c]quinolin-6-one as novel selective Haspin inhibitors” (Journal of Enzyme Inhibition and Medicinal Chemistry, 2022)

Legend:
[1] = system: RPE1 cell line; experiment: Cell viability MTS assay, dose-response; assay type: cell-based; conditions: Homo sapiens, RPE-1; 48 h, MTS assay in triplicate, doses up to 50 µM
Method: (§1) HCT116 cells were cultured in McCoy’s medium. SH-SY5Y, MDA-MB231 and U-2 OS cells were cultured in Dulbecco's modified Eagle's medium (DMEM) and hTERT RPE-1 cells in DMEM:F12 medium. All media were supplemented with 10% foetal calf serum and cells were cultured at 37 °C in a 5% CO2 humidified atmosphere.
(§2) Cell viability was then assessed using the CellTiter96 AQueous cell proliferation assay from Promega according to the manufacturer’s instructions. Each experiment was done in triplicate and EC50 were determined from the dose-response curves according to the signal given by the control (0.1% DMSO) set at 100% viability using Prism GraphPad software.

[2] = system: U-2 OS cell line; experiment: Cell viability MTS assay, dose-response; assay type: cell-based; conditions: Homo sapiens, U2OS; 48 h, MTS assay in triplicate, doses up to 50 µM
Method: as §1, §2

Work on COc1ccc2[nH]c3c(=O)[nH]c4ccc(O)cc4c3c2c1 [Compound 55, 2-Hydroxy-10-methoxy-5,7-dihydro-6H-indolo[2,3-c]quinolin-6-one] yielded an EC50 [1] of 10.7 µM and an EC50 [2] of 3.4 µM.
